Data as given in ChEMBL document CHEMBL1212885, “Identification and characterization of acidic mammalian chitinase inhibitors” (J Med Chem, 2010).

Tests used:
[1] = Inhibition of chitotriosidase after 60 mins
[2] = test system: Mus musculus; assay: Antiallergic activity in C57BL/6 mouse assessed as reduction of HDM/CRA-induced chitinase activity in bronchoalveolar lavage fluid at 10 mg/kg, ip administered once daily; assay type: functional, C57BL6, Lung; parameters: scale not given: the % may be the effect or the level left; details: route intraperitoneal
[3] = molecular target: T1, Acidic mammalian chitinase (Homo sapiens, UniProt Q9BZP6); assay: Binding affinity to biotinylated-acidic mammalian chitinase
[4] = molecular target: T1, Acidic mammalian chitinase; assay: Inhibition of acidic mammalian chitinase after 60 mins
[5] = test system: Mus musculus; assay: Antiallergic activity in C57BL/6 mouse assessed as reduction of HDM/CRA-induced chitinase activity in bronchoalveolar lavage fluid at 50 mg/kg, po administered twice daily; assay type: functional, C57BL6, Lung; parameters: scale not given: the % may be the effect or the level left

T1 sequence (Q9BZP6 whole entry): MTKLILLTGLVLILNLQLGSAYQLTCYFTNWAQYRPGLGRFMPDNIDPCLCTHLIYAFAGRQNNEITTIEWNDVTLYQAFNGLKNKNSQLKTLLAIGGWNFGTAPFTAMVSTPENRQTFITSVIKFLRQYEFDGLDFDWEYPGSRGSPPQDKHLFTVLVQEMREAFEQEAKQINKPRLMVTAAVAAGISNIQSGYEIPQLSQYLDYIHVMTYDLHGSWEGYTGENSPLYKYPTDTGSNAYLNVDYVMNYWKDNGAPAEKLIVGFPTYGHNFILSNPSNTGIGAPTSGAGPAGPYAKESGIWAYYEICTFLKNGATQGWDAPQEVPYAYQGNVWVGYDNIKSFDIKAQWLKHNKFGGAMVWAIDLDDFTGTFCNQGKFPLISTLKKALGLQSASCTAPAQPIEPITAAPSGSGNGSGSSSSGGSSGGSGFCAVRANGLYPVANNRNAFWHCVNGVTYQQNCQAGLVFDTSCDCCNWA

Row | SMILES | IC50 [1] | also measured
1 | N=C(N)N1CCN(c2ccc(Cl)cc2)CC1 | > 100 µM | 
2 | C[C@@H]1C[C@H]2[C@@H]3CCC4=CC(=O)C=C[C@]4(C)[C@@]3(F)[C@@H](O)C[C@]2(C)[C@@]1(O)C(=O)CO [DEXAMETHASONE] |  | Activity [2]: 60%

Now from value to molecule, other results behind:

Row | IC50 [1] | SMILES | also measured
3 | 90.1 µM | NC(=O)c1cccnc1N1CCNCC1 | Kd [3]: 141 µM; IC50 [4]: 102 µM
4 | 4.23 µM | Nc1n[nH]c(N2CCN(CCOc3ccc(Br)cc3)CC2)n1 | Activity [5]: 43%
5 | 1.34 µM | Cc1[nH]c2ccccc2c1CN1CCN(c2ccccn2)CC1 | 
